Like-named read-outs stand apart in the source and are kept apart here.
Tested on: porcine small intestinal mucosal disaccharidase (suspension of porcine small intestinal mucosal brush border membrane)
Assay type: in vitro ADME
Settings: porcine small intestine-derived disaccharidase added to the enzyme reaction system, HPLC
From the text: In the method for determining a carbohydrate according to the embodiment of the present invention and the method for determining a carbohydrate according to Examples described below, a suspension of porcine small intestinal mucosal brush border membrane is used as the animal-derived low-molecular-weight carbohydrate digestive enzyme.

## OC[C@H]1O[C@@](CO)(O[C@H]2O[C@H](CO)[C@@H](O)[C@H](O)[C@H]2O)[C@@H](O)[C@@H]1O [sucrose]
  Digestion by porcine small intestinal mucosal disaccharidases (result in words): almost completely digested
Listed as Sucrose
  Digestion by porcine small intestinal mucosal disaccharidases (result in words): completely digested

— patent US8367365B2, “Method for determining carbohydrate and kit for determining carbohydrate” (priority 2008, dated 2013)
